{
  "source": "patent US20110253140A1",
  "about": "“FORMULATIONS CONTAINING LARGE-SIZE CARRIER PARTICLES FOR DRY POWDER INHALATION AEROSOLS” (STC.UNM, priority 2008, published 2011)",
  "origin": "cited, not measured here",
  "note": "Read-outs that look alike come from different tables or passages of the source.",
  "data": [
    {"smiles": "CCCC1O[C@@H]2C[C@H]3[C@@H]4CCC5=CC(=O)C=C[C@]5(C)[C@H]4[C@@H](O)C[C@]3(C)[C@]2(C(=O)CO)O1", "note": "(some centres unmarked) [budesonide]", "values": [
      {"measurement": "lung deposition, % of the metered dose", "setting": "PIF 35 L/min", "result": 14.8, "unit": "%"},
      {"measurement": "lung deposition, % of the metered dose", "setting": "peak inspiratory flow rate (PIF) 60 L/min", "result": 27.7, "unit": "%"}
    ]}
  ]
}
